Laboratory results: publication PMC6152192, “Novel Methylselenoesters as Antiproliferative Agents” (Molecules : A Journal of Synthetic Chemistry and Natural …, 2017)
Several values for one entry are separate records, joined by “and”; a condition that tells them apart may be missing. Identical values can stand only once.

Tests used:
[1] = system: 184B5 (non-malignant mammary epithelium); experiment: MTT viability assay, 184B5; assay type: cell-based; details: 184B5 non-malignant, 72 h, MTT; for CC50: read-out: LC50 (the source's name)
Experimental: (§1) The novel compounds were tested against a panel of different cancer lines: PC-3 (prostate adenocarcinoma), MCF7 (mammary adenocarcinoma), HTB-54 (lung carcinoma), K-562 (chronic myelogenous leukemia) and HT-29 (colorectal adenocarcinoma). Two non-malignant cell lines, BEAS-2B (bronchial epithelial) and 184B5 (mammary epithelial) were also included to evaluate the toxicity of the novel synthesized compounds. The antiproliferative activity was measured with the [3-(4,5-dimethylthiazol-2-yl)-2,5-diphenyltetrazolium bromide] (MTT) assay after 72 h treatment. Six concentrations ranging from 0.1 to 100 μM were tested. MSA is largely known as the main CH3SeH putative precursor and was therefore included as positive control. The following parameters were calculated: GI50 (concentration which reduces the growth by 50%), TGI (concentration completely inhibiting growth) and LC50 (concentration that kills 50% of the cells).
(§2) All cells were purchased from the American Type Culture Collection (ATCC, Barcelona, Spain). HT-29 (colorectal adenocarcinoma), HTB-54 (grade III lung carcinoma), MCF7 (mammary adenocarcinoma), PC-3 (grade IV prostate adenocarcinoma) and K-562 (chronic myelogenous leukemia) were cultured in RPMI (Gibco, Madrid, Spain), 10% FBS (Gibco), 100 units/mL penicillin and 100 μg/mL streptomycin (Gibco). BEAS-2B cell line (normal epithelial lung) was cultured in DMEM (Gibco), 10% FBS, 100 units/mL penicillin and 100 μg/mL streptomycin. 184B5 (normal mammary gland) cell line was cultured in DMEM:F12 supplemented with 5% FBS, 1 × ITS (Lonza, Barcelona, Spain), 100 nM hydrocortisone (Sigma-Aldrich), 2 mM sodium pyruvate (Lonza), 20 ng/mL EGF (Sigma-Aldrich), 0.3 nM trans-retinoic acid (Sigma-Aldrich), 100 units/mL penicillin and 100 µg/mL streptomycin. Cells were cultured at 37 °C under 5% CO2.
(§3) Cell viability after treatment was assessed by the well-known 3-(4,5-dimethyl-thiazol-2-yl)-2,5-diphenyltetrazolium bromide (MTT, Sigma-Aldrich) assay. Briefly, 10,000 cells were seeded in 96-well plates, treated and incubated for 72 h. Dilutions of the compounds in cell medium were freshly prepared from a 0.01 M stock in DMSO. After treatment, 50 μL of MTT solution in PBS (2 mg/mL) were added and cells were incubated for 4 h. Medium was removed and 150 μL of DMSO was added to dissolve the formed formazan crystals. Absorbance was read at 550 nm in a microplate absorbance reader (Sunrise, Tecan, Männedorf, Switzerland).

[2] = system: MCF7 (mammary adenocarcinoma); experiment: MTT viability assay, MCF7; assay type: cell-based; details: MCF7, 72 h, MTT; for CC50: read-out: LC50 (the source's name)
Experimental: as §1, §2, §3

[3] = system: K-562 (chronic myelogenous leukemia); experiment: MTT viability assay, K-562; assay type: cell-based; details: K-562, 72 h, MTT; for CC50: read-out: LC50 (the source's name)
Experimental: as §1, §2, §3

[4] = system: BEAS-2B (non-malignant bronchial epithelial); experiment: MTT viability assay, BEAS-2B; assay type: cell-based; details: BEAS-2B non-malignant, 72 h, MTT; for CC50: read-out: LC50 (the source's name)
Experimental: as §1, §2, §3

HTB-54 (lung carcinoma) = experiment: MTT viability assay, HTB-54; assay type: cell-based; details: HTB-54, 72 h, MTT; for CC50: read-out: LC50 (the source's name)
Experimental: as §1, §2, §3

[5] = system: PC-3 (prostate adenocarcinoma); experiment: MTT viability assay, PC-3; assay type: cell-based; details: PC-3, 72 h, MTT; for CC50: read-out: LC50 (the source's name)
Experimental: as §1, §2, §3

[6] = system: HT-29 (colorectal adenocarcinoma); experiment: MTT viability assay, HT-29; assay type: cell-based; details: HT-29, 72 h, MTT; for CC50: read-out: LC50 (the source's name)
Experimental: as §1, §2, §3

[7] = Methylselenol (CH3SeH) release by hydrolysis, quantified with DTNB (Ellman's reagent); assay type: physicochemical; details: 100 μM compound, 100 μM DTNB, 100 mM phosphate buffer, 1 mM EDTA, pH 8, followed over 72 h
Source text: The new compounds were designed as CH3SeH precursors. The chemical features of the selenoester functional group facilitate a nucleophilic attack (i.e., with water) which would deliver the CH3SeH residue. In order to verify if CH3SeH could be released from the molecules by hydrolysis and if the rate differed among the compounds, the reaction of CH3SeH with 5,5′-dithiobis(2-nitrobenzoic acid) (DTNB or Ellman’s reagent) in aqueous environment was monitored. Briefly, when the disulfide bridge of DTNB reacts with thiols or selenols, 2-nitro-5-thiobenzoate (TNB^2−) is released and the mixed disulfide or selenylsulfide is formed. Each released CH3SeH produces one yellow TNB^2− species, whose absorbance can be quantified at 412 nm (Figure 2A).
A stock solution of the compounds was prepared in anhydrous DMSO (10 mM). The compounds were placed in a 96-well plate in a final concentration of 100 μM. Reaction started after adding 200 μL of an aqueous 100 mM Na2HPO4 buffer (1 mM EDTA, pH = 8), containing 100 μM of DTNB from a freshly prepared 10 mM ethanolic stock, which were added just before starting the reaction. The DTNB concentration was quantified with a cysteine standard curve ([…]). Blanks for the compounds in the absence of DTNB were also included as well as a blank to measure the slow but spontaneous hydrolysis of DTNB, which was further subtracted from all the values. Absorbance was read at 412 nm in a FLUOstar Omega microplate reader (BMG LabTech, Ortenberg, Germany). Results represent means of triplicate values ± SD.
Figure 2 CH3SeH release rates are dependent on the chemical features of the molecule. Released CH3SeH was quantified through reaction with Ellman’s reagent (DTNB). (A) Proposed reaction between CH3SeH and DTNB; (B) Quantification of TNB^2− at different times. The compounds were tested at 100 μM in 200 μL of 100 mM phosphate buffer (1 mM EDTA, pH = 8). DTNB concentration was also 100 μM. Absorbance was followed at 412 nm over 72 h. A cysteine standard curve (7.5–150 μM) was used to calculate the concentration of TNB^2− over time. Compounds showing less than 15% hydrolysis at 72 h are not included, except for compound 5 as example. Error bars indicate SD of triplicates.

Substance | GI50 [1] [µM] | TGI [1] [µM] | CC50 [1] [µM] | GI50 [2] [µM] | TGI [2] [µM] | CC50 [2] [µM] | GI50 [3] [µM] | TGI [3] [µM] | CC50 [3] [µM] | GI50 [4] [µM] | TGI [4] [µM] | CC50 [4] [µM] | GI50 (HTB-54 (lung carcinoma)) | CC50 (HTB-54 (lung carcinoma)) [µM] | GI50 [5] | CC50 [5] [µM] | GI50 [6] [µM] | TGI [6] [µM] | CC50 [6] [µM] | TGI [5] [µM] | further results
Methyl 2-phenyl-4-quinolinecarboselenoate [Compound 10] | 3.9 ± 0.7 | 6.3 ± 0.5 | 8.7 ± 0.4 | 5.6 ± 1.3 | 51.3 ± 3.7 | > 100 | 9.7 ± 4.9 | 59.1 ± 3.5 | > 100 | 3.1 ± 0.5 | 5.5 ± 0.4 | 7.8 ± 0.5 | 5.9 ± 1.1 µM | 64.4 ± 4.2 | 4.4 ± 1.3 µM | 70.9 ± 5.2 | 4.1 ± 0.3 | 7.5 ± 0.7 | 35 ± 2.4 |  | TGI (HTB-54 (lung carcinoma)): 16.7 ± 2.3 µM
Methyl 4-nitrobenzoselenoate [Compound 1] | 3.4 ± 0.4 | 6.4 ± 1.1 | 9.3 ± 0.6 | 4.1 ± 0.5 | 7.9 ± 0.9 | 45 ± 4.6 | 50.1 ± 2.3 | 85.3 ± 4.9 | > 100 | 3.8 ± 0.3 | 6.4 ± 0.4 | 9 ± 0.7 |  | 78.6 ± 2.9 | 5.8 ± 0.7 µM | 75.7 ± 3.3 | 5 ± 0.7 | 9.3 ± 1.4 | 87.2 ± 5 | 10.4 ± 2.3 | CH3SeH release / hydrolysis rate [7]: more sustained release; TGI (HTB-54 (lung carcinoma)): 50.5 ± 5.1 µM
Methyl 1,3-benzodioxole-5-carboselenoate [Compound 8] | 3.7 ± 0.3 | 6.4 ± 0.2 | 9 ± 0.4 | 4.6 ± 0.5 | 9.2 ± 1.3 | 68.7 ± 2.5 | 29.7 ± 4.7 | 62.6 ± 3.9 | 95.4 ± 4.9 | 3.1 ± 0.3 | 5.6 ± 0.6 | 8 ± 1.1 | 6 ± 0.9 µM | 77.1 ± 4.9 | 5.7 ± 1.6 µM | 96 ± 4.7 | 5.9 ± 0.8 | 27.7 ± 4.5 | 81.1 ± 4 | 11.0 ± 3.1 | TGI (HTB-54 (lung carcinoma)): 23.2 ± 2.6 µM
Methyl benzo[b]thiophene-2-carboselenoate [Compound 7] | 3.9 ± 1.2 | 6.9 ± 1.7 | 9.9 ± 0.8 | 6.9 ± 1.4 | 61.6 ± 4.1 | > 100 | 29.2 ± 4.4 | 58.8 ± 1.5 | 88.3 ± 3.3 | 3.9 ± 0.6 | 6.8 ± 0.8 | 9.8 ± 1.1 | > 10 µM and 17.5 µM | 93.4 ± 4.8 | > 10 µM and 18.4 µM | 77.3 ± 4.5 | 3.7 ± 0.2 | 7.4 ± 0.9 | 41.8 ± 4.5 | 47.8 ± 3.9 | TGI (HTB-54 (lung carcinoma)): 55.4 ± 4.4 µM
Methyl 2-thiophencarboselenoate [Compound 4] | 3.6 ± 0.8 | 7.2 ± 1.4 | 27.9 ± 4.6 | 5.3 ± 1.4 | 22.8 ± 3.8 | 89.6 ± 4.1 | 40.6 ± 4.5 | 74.6 ± 4.9 | > 100 | 2.9 ± 0.3 | 5.8 ± 0.7 | 8.7 ± 2.1 | 8.5 ± 3.1 µM | 73.9 ± 4.1 | 5.2 ± 0.9 µM | 62 ± 4.9 | 3.4 ± 0.2 | 7.2 ± 1.2 | 47.5 ± 3.2 | 19.4 ± 3.6 | TGI (HTB-54 (lung carcinoma)): 39.0 ± 3.1 µM
Dimethyl 5-cyano-1,3-benzenedicarboselenoate [Compound 14] | 3.8 ± 0.7 | 6.5 ± 0.6 | 9.3 ± 0.7 | 4.9 ± 0.8 | 8.4 ± 1.1 | 54.4 ± 2.7 | 29.9 ± 0.6 | 54.7 ± 0.7 | 79.5 ± 0.7 | 3.2 ± 0.7 | 5.5 ± 0.5 | 7.8 ± 0.3 | 3.8 ± 0.6 µM | 66.5 ± 4.5 | 7.2 ± 3.5 µM | 68.7 ± 3 | 3.8 ± 0.1 | 7.9 ± 0.7 | > 100 | 32.3 ± 3.7 | 
Methyl 4-methoxybenzoselenoate [Compound 2] | 3.7 ± 0.8 | 6.4 ± 1.5 | 9 ± 2.1 | 4.1 ± 0.8 | 9.3 ± 4.1 | 74.8 ± 4 | 40.8 ± 4.8 | 70.6 ± 5.9 | > 100 | 3.2 ± 0.5 | 5.8 ± 0.6 | 8.4 ± 1 | 6.8 ± 1.7 µM | 70 ± 2.9 | 7.3 ± 1.7 µM | > 100 | 4.1 ± 0.1 | 7.5 ± 1.1 | 50 ± 2.4 | 45.1 ± 4.5 | TGI (HTB-54 (lung carcinoma)): 29.7 ± 4.3 µM
Methyl 2-(4-pyridyl)thiazole-4-carboselenoate [Compound 12] | 3.4 ± 0.3 | 6.5 ± 0.8 | 9.6 ± 2.8 | 4.4 ± 1 | 8.1 ± 1.7 | 56.2 ± 9.6 | 82 ± 4.4 | >100 | > 100 | 3.7 ± 1.3 | 6.4 ± 1.3 | 9.2 ± 1 | 9.8 ± 5.1 µM | 80.5 ± 3.5 | > 10 µM and 16.9 µM | 85 ± 4.7 | 5.1 ± 0.1 | 14.2 ± 6.6 | > 100 | 50.9 ± 4.9 | TGI (HTB-54 (lung carcinoma)): 44.9 ± 3.7 µM
Methyl 9-acridinecarboselenoate [Compound 13] | 6.6 ± 1.2 | 26.8 ± 1.0 | 65 ± 4.5 | 4.2 ± 1.8 | 35.4 ± 4.7 | 83.4 ± 4.1 |  |  |  | 3.8 ± 0.1 | 6.4 ± 0.2 | 8.9 ± 0.4 |  |  |  | > 100 | 6 ± 0.5 | 16.5 ± 1.9 | 66.6 ± 0.1 | >100 | 
